What was measured:
[1] = test system: CfEcR; assay: Transactivation through CfEcR- versus DmEcR-based switches in mammalian cell lines (Tables 1–4); design: species or system Choristoneura fumiferana
Method: Cells were harvested 24–48 hr after adding ligands. […] Twenty μl of lysate was assayed.

[2] = test system: GAL4RXR + VP16CfEcR; assay: Transactivation of reporter gene through switch 1.3 in 3T3 cells; settings: GAL4MmRXRDEF/VP16CfEcRCDEF (switch 1.3), 1.0 μM ligand
Description: (§1) In various cellular backgrounds, including mammalian cells, insect ecdysone receptor (EcR) heterodimerizes with retinoid X receptor (RXR) and, upon binding of ligand, transactivates genes under the control of ecdysone response elements. […] The prepared receptor constructs comprise a ligand binding domain of EcR and of RXR or of USP; a DNA binding domain of GAL4 or of EcR; and an activation domain of VP16. The reporter constructs include a reporter gene, luciferase or LacZ, operably linked to a synthetic promoter construct that comprises either GAL4 or EcR/USP binding sites (response elements). Various combinations of these receptor and reporter constructs were cotransfected into CHO, NIH3T3, CV1 and 293 cells.
The same procedures described for CHO cells were followed for 3T3 cells as well with two modifications. The cells were plated when they reached 50% confluency. 125,000 or 50,000 or 25,000 cells were plated per well of 6- or 12- or 24-well plates respectively. […] The ligand treatments were performed as described in the CHO cell section above.

[3] = test system: EcR/RXR receptor combinations; assay: Truncated CfEcR and MmRXR receptor combinations, luciferase reporter in NIH3T3 cells; format: cell-based, Choristoneura fumiferana; Mus musculus; settings: 0, 1, 5 or 25 uM ligand for 48 hr, FIGS. 11–14
Method: Briefly, polynucleotides encoding EcR or RXR receptors were truncated at the junctions of A/B, C, D, E and F domains and fused to either a GAL4 DNA binding domain encoding polynucleotide (SEQ ID NO: 43) for CfEcR, or a VP16 activation domain encoding polynucleotide (SEQ ID NO: 49) for MmRXR as described in Example 1. The resulting receptor truncation/fusion polypeptides were assayed in NIH3T3 cells. Plasmid pFRLUC (Stratagene) encoding a luciferase polypeptide was used as a reporter gene construct and pTKRL (Promega) encoding a Renilla luciferase polypeptide under the control of the constitutive TK promoter was used to normalize the transfections as described above. The analysis was performed in triplicates and mean luciferase counts were determined as described above. […]

[4] = test system: GAL4EcR + VP16RXR; assay: Transactivation of reporter gene through switch 1.1 in 3T3 cells; settings: GAL4CfEcRDEF/VP16MmRXRDEF (switch 1.1), 1.0 μM ligand, 48 hr
Description: as §1
The same procedures described for CHO cells were followed for 3T3 cells as well with two modifications. The cells were plated when they reached 50% confluency. 125,000 or 50,000 or 25,000 cells were plated per well of 6- or 12- or 24-well plates respectively.

[5] = test system: CfEcRDEF:MmRXRDEF; assay: CfEcR-based yeast two-hybrid assay, LacZ reporter pSH118; format: cell-based, Choristoneura fumiferana; Mus musculus; settings: yeast strain comprising CfEcRDEF:MmRXRDEF; 0–100 μM ligand for four hours; FIGS. 18 and 19
Description: This construct results in a LexA:CfEcRDEF fusion that is expressed under the GAL1 promoter.
The D, E, and F domains from mouse (Mus musculus) RXR α (“MmRXRDEF”; SEQ ID NO: 22) were fused to a B42 transactivation domain (“B42AD”; SEQ ID NO: 53) and placed under the control of a GAL1 promoter (SEQ ID NO: 73) in pB42AD (CLONTECH). This construct results in a B42AD:MmRXR-DEF fusion that is expressed under the GAL 1 promoter.
A reporter plasmid comprising a β-galactosidase gene (LacZ; SEQ ID NO: 74) under the control of an 8XLexA operon response element (“8XlexAop”; SEQ ID NO: 75) operably linked to a minimal TATAA region from the GAL1 promoter (p8op-lacZ from CLONTECH) was used to monitor inducible gene expression.
Saccharomyces cerevisiae yeast cells (EGY48; CLONTECH) were used in these experiments. Cells were maintained in liquid culture media with the appropriate drop out amino acids. Standard methods for culture and maintenance of the cells were followed. […]
DNA constructs pSH118, CfEcRDEF, and MmRXRA/BCDEF, MmRXRDEF, or […] were transfected into yeast cells. […] A colony from each group of transformants was grown in the liquid culture in the presence of 0, 0.04, 0.2, 1, 5 and 25 μM GS™-E. The reporter activity was measured as described above 4 hours after adding ligand. Total RLUs were calculated and the numbers on the bars of FIG. 16 show maximum fold induction observed for that group (see FIGS. 16 and 17).
The best performing transformed yeast strain from the analysis above comprising CfEcRDEF:MmRXRDEF was used to determine the induction activity of three steroid ligands (20E, PonA, MurA) and four non-steroid ligands (GS™-E, RH2485, RH5992, RH5849) in this yeast-based format. The yeast cells were cultured in the presence of 0, 0.l, 1, 10, 50 and 100 μM ligands for four hours and the reporter activity was measured as described above. Total RLUs were calculated and the numbers on the top of the bars of FIG. 18 show the maximum fold induction for that group (see FIGS. 18 and 19).

Cc1cc(C)cc(C(=O)N(NC(=O)c2ccc3c(c2C)OCCO3)C(C)(C)C)c1 [N-(3,4-(1,2-ethylenedioxy)-2-methylbenzoyl)-N′-(3,5-dimethylbenzoyl)-N′-tert-butylhydrazine]
Potency as activator of CfEcR compared to DmEcR [1]: more potent activators of CfEcR as compared to Drosophila melanogaster EcR (DmEcR) | Mean Fold Induction at 1.0 μM Concentration [2]: 54 fold

CC(C)CC[C@@H](O)[C@](C)(O)[C@H]1CC[C@@]2(O)C3=CC(=O)[C@@H]4C[C@@H](O)[C@@H](O)C[C@]4(C)[C@H]3CC[C@]12C [Ponasterone A, reference compound]
Mean Fold Induction at 1.0 μM Concentration [2]: 1.0 fold | Sensitivity of the EcR/RXR switch to the ligand [3]: insensitive | Mean Fold Induction at 1.0 μM Concentration [4]: 1.0 fold

CC(C)CC[C@@H](O)[C@](C)(O)[C@H]1CC[C@@]2(O)C3=CC(=O)[C@]4(O)C[C@@H](O)[C@@H](O)C[C@]4(C)[C@H]3[C@H](O)C[C@]12C [Muristerone A, reference compound]
Mean Fold Induction at 1.0 μM Concentration [2]: 1.0 fold | Mean Fold Induction at 1.0 μM Concentration [4]: 1.0 fold

CC(C)(C)N(NC(=O)c1ccccc1)C(=O)c1ccccc1 [RH5849, N-tert-butyl-N,N′-dibenzoylhydrazine]
Induction of gene expression (relative performance of ligands) [5]: did not show a significant response

From patent US7091038B2, “Ecdysone receptor-based inducible gene expression system” (RheoGene, Inc., priority 2000, dated 2006)
